Data taken from publication PMC6556873, “Rapid Covalent-Probe Discovery by Electrophile-Fragment Screening” (Journal of the American Chemical Society, 2019).
Where two headings read alike, the source gives them in different places.

Assays:
[1] = target: T1, BSA (Bos taurus, UniProt P02769); parameters: Intact protein LC/MS covalent labelling, fragments in pools of five, 200 uM each, 4 °C; details: 24 h, 4 °C, pool of five; 200 µM; covalent
T1 construct: gene ALB

[2] = target: T2, NUDT7 (Homo sapiens, UniProt P0C024); parameters: Intact protein LC/MS covalent labelling, fragments in pools of five, 200 uM each, 4 °C; details: 24 h, 4 °C, pool of five; 200 µM; covalent
T2 construct: residues 14-235, E. coli, pNIC28-Bsa4, N-terminal His6 tag removed by TEV, construct 26672 Da

[3] = target: T3, OTUB2 (OTUB2A) (Homo sapiens, UniProt Q96DC9); parameters: Intact protein LC/MS covalent labelling, fragments in pools of five, 200 uM each, 4 °C; details: 24 h, 4 °C, pool of five; 200 µM; covalent
T3 construct: full length residues 1-234, E. coli BL21(DE3)-R3, His tag removed by TEV, construct 27312 Da
T3 sequence (Q96DC9 1-234): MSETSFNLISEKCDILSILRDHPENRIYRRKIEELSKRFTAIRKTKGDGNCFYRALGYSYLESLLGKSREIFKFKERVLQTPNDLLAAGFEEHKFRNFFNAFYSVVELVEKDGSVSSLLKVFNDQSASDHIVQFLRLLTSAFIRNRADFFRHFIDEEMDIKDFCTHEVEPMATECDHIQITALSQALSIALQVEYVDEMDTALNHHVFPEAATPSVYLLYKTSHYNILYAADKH

[4] = target: T4, PCAF (Homo sapiens, UniProt Q92831); parameters: Intact protein LC/MS covalent labelling, fragments in pools of five, 200 uM each, 4 °C; details: 24 h, 4 °C, pool of five; 200 µM; covalent
T4 construct: gene KAT2B

[5] = in vitro; parameters: species or system CCD841, HEK293; details: human, hb2 cells, read-out: HB-2 Cells Viability (%)
[6] = in vitro; parameters: species or system HB2, HEK293; details: human, ccd841 cells
[7] = in vitro; parameters: species or system HB2, CCD841; details: human, hek293 cells

T1 sequence (P02769 whole entry, the tested form may be a part): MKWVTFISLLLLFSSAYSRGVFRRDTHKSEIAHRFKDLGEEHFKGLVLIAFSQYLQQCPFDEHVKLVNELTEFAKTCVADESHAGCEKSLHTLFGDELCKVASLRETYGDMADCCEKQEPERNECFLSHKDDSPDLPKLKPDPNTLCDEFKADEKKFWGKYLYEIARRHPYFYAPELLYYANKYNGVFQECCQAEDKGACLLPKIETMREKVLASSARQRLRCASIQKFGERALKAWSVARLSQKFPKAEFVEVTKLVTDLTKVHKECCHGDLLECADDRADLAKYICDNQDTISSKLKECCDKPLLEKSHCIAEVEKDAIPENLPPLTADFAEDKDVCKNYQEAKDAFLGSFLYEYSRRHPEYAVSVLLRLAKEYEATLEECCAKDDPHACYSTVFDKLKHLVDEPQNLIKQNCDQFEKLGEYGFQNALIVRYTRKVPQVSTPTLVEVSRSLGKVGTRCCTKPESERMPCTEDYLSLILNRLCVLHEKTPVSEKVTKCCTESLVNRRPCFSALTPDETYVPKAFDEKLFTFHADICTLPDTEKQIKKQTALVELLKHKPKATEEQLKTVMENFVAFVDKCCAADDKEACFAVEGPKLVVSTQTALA
T4 sequence (Q92831 whole entry, the tested form may be a part): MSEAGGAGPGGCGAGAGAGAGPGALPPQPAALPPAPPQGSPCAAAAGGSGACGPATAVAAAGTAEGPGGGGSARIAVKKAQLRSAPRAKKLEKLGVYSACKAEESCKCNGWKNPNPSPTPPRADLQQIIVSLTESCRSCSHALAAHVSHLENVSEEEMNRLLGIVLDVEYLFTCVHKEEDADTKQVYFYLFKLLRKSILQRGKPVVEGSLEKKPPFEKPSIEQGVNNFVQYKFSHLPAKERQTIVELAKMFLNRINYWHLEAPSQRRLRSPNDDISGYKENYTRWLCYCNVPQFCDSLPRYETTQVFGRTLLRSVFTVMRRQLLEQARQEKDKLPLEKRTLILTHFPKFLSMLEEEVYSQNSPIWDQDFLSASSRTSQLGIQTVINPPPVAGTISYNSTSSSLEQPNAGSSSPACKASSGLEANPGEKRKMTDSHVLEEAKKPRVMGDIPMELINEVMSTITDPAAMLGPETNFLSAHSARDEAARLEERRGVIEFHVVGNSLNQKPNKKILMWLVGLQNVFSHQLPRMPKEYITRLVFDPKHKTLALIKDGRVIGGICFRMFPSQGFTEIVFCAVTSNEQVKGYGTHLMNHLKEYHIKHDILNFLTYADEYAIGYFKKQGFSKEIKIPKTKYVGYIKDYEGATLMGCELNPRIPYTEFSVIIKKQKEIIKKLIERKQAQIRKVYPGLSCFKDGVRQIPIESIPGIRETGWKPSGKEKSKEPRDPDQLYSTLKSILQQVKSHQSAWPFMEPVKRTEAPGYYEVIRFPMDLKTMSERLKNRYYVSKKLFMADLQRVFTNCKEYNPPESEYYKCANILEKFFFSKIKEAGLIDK
T2 sequence (P0C024 14-235): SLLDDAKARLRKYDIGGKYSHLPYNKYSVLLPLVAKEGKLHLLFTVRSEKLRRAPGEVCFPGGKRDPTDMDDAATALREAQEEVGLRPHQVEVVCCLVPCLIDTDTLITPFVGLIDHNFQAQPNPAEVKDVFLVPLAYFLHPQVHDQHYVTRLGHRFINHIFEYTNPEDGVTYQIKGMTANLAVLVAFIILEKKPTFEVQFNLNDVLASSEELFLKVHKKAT

Row | SMILES | BSA [1] | NUDT7 [2] | OTUB2 [3] | PCAF [4] | viability at 48 h, 10 µM [5] | viability at 48 h, 10 µM [6] | viability at 48 h, 10 µM [7]
1 | COC(=O)C1CN(C(=O)CCl)c2ccccc2O1 (stereo not drawn) [PCM-0102880] | 0 | 0 | 0.11 | 0 | 112% | 96.4% | 97.5%
2 | O=C(CCl)NCC1COc2ccccc2O1 (stereo not drawn) [PCM-0102881] | 0 | 0 | 0.39 | 0 | 81% | 76.2% | 56.3%
3 | C=CC(=O)NC1CNC(=O)C1 (stereo not drawn) [PCM-0102882] | 0 | 0 | 0 | 0 | 108% | 99.1% | 97.3%
4 | Cc1ccccc1NC(=O)CCl [PCM-0102887] | 0 | 0 | 0 | 0 | 90.2% | 69.6% | 55.1%
5 | C=CC(=O)N1CCN(C(C)C)c2ccccc2C1 [PCM-0102888] | 0 | 0 | 0 | 0 | 108% | 93.1% | 101%
6 | Cl.O=C(CCl)N1CCN(c2cnccn2)CC1 [PCM-0102889] | 0 | 0 | 0 | 0 | 88.2% | 97.2% | 94.7%
7 | O=C(CCl)Nc1ccc(Cl)nc1 [PCM-0102891] | 0 | 0.25 | 0 | 0 | 31.5% | 33.2% | 9%
8 | CN(C(=O)CCl)c1nc2ccccc2s1 [PCM-0102894] | 0 | 0.34 | 0 | 0 | 88.4% | 83.6% | 87.7%
9 | CC(=O)Nc1ccc(NC(=O)CCl)c(C(F)(F)F)c1 [PCM-0102895] | 0 | 0 | 0 | 0 | 97.1% | 91.7% | 82%
10 | O=C(CCl)NCC1CCS(=O)(=O)C1 (stereo not drawn) [PCM-0102896] | 0 | 0 | 0.23 | 0 | 102% | 92.3% | 117%
11 | CN(Cc1cc(C#N)ccc1F)C(=O)CCl [PCM-0102897] | 0 | 0.07 | 0 | 0 | 23.8% | 69.2% | 9.6%
12 | CN(Cc1cnn(C)c1)C(=O)CCl.Cl [PCM-0102899] | 0 | 0.08 | 0.26 | 0 | 101% | 91.9% | 70.7%
13 | CCN(C(=O)CCl)c1ccc(F)cc1 [PCM-0102900] | 0 | 0.29 | 0 | 0 | 61.2% | 13.6% | 10.3%
14 | Cc1nc(-c2ccc3c(c2)CCN3C(=O)CCl)cs1 [PCM-0102901] | 0 | 0.46 | 0 | 0 | 2.3% | 22.6% | 1.2%
15 | COC(=O)CNC(=O)CCl [PCM-0102906] | 0 | 0 | 0.06 | 0 | 87.7% | 86.7% | 112%
16 | CCC(C)NC(=O)NC(=O)CCl (stereo not drawn) [PCM-0102908] | 0 | 0 | 0 | 0 | 110% | 91.8% | 88.7%
17 | CC1CCC(NC(=O)CCl)CC1 (stereo not drawn) [PCM-0102913] | 0 | 0 | 0.08 | 0 | 96.2% | 86.2% | 72.4%

Row | SMILES | BSA [1] | NUDT7 [2] | OTUB2 [3] | PCAF [4] | viability at 48 h, 10 µM [5] | viability at 48 h, 10 µM [6] | viability at 48 h, 10 µM [7]
18 | O=C(CCl)Nc1ccc(Cl)cc1Cl [PCM-0102914] | 0 | 0.22 | 0.14 | 0 | 52.5% | 82.7% | 38.3%
19 | O=C(CCl)Nc1ccc(N2CCCC2=O)cc1 [PCM-0102915] | 0 | 0 | 0.49 | 0 | 59.3% | 65.3% | 17.7%
20 | CN(C(=O)CCl)C1(C#N)CCCCC1 [PCM-0102916] | 0 | 0 | 0 | 0 | 38% | 47.6% | 7.5%
21 | O=C(CCl)N1CCN(Cc2ccccc2)C1=O [PCM-0102919] | 0 | 0 | 0.1 | 0 | 102% | 96.2% | 90.9%
22 | O=C(CCl)N1CCC(c2nc3ccccc3o2)CC1 [PCM-0102920] | 0 | 0 | 0 | 0 | 40.1% | 70% | 21.4%
23 | CN1CCN(C(=O)CCl)CC1 [PCM-0102921] | 0 | 0 | 0 | 0 | 102% | 109% | 90.1%
24 | CC(C)(C)OC(=O)N1CCCC(CNC(=O)CCl)C1 (stereo not drawn) [PCM-0102923] | 0.13 | 0 | 0.2 | 0 | 99.5% | 91% | 92.2%
25 | O=C(CCl)Nc1ccc(Br)cc1F [PCM-0102926] | 0 | 0.17 | 0.2 | 0 | 50.9% | 59.9% | 32.5%
26 | C=CC(=O)N1Cc2ccccc2OC(C)(C)C1 [PCM-0102927] | 0 | 0 | 0 | 0 | 104% | 111% | 93.4%
27 | CC(C)c1nnc(NC(=O)CCl)s1 [PCM-0102928] | 0 | 0.04 | 0 | 0 | 85.3% | 77.9% | 81.8%
28 | Cl.O=C(CCl)Nc1ccncc1 [PCM-0102930] | 0 | 0 | 0 | 0 | 86.4% | 90.7% | 90.5%
29 | CC1CCCN(C(=O)C2CCN(C(=O)CCl)CC2)C1 (stereo not drawn) [PCM-0102933] | 0 | 0 | 0 | 0 | 92.6% | 80.1% | 57.9%
30 | O=C(CCl)NC1(c2ccccc2)CCC1 [PCM-0102935] | 0 | 0.29 | 0 | 0 | 81.5% | 89.7% | 53.8%
31 | CCOC(=O)C1CCCCN1C(=O)CCl (stereo not drawn) [PCM-0102937] | 0 | 0 | 0.13 | 0 | 90.3% | 89.4% | 71.9%
32 | O=C(CCl)N1CCOC2CCCCC21 (stereo not drawn) [PCM-0102940] | 0 | 0 | 0 | 0 | 93.7% | 95.8% | 74%
33 | CC(C)N(C(=O)CCl)C1CCCCC1 [PCM-0102941] | 0.3 | 0.17 | 0 | 0 | 85.7% | 26% | 56.3%
